Source: patent US7371734B2, “Oligonucleotide compositions and their use for the modulation of immune responses” (Bioniche Life Sciences Inc., priority 2002, dated 2008)
Marks after values point to notes of the source that are not given here.

Legend:
Assay type in all cases: cell-based
[1] = system: Human dendritic cells; assay: CD80 levels at the DC cell surface (flow cytometry); conditions: 100 μg, 48 hours
Experimental: (§1) Human dendritic cells were obtained from Clonetics (San Diego, Calif., USA) and were cultured in the medium recommended by Clonetics. DC were obtained from three different individuals (see Table 1). Major histocompatability typing was performed on each of these individuals and several of the HLA (human leukocyte antigens) types are shown.
DC from individuals B and C were seeded in 1.0 ml at 1.0×10^5 cells/ml in 6-well flat-bottomed tissue culture plates for 48 hours with 100 μg of 6 base N1A, N1B, N2A, N2B, N3A, N3B, N4A, N4B, N5A, N5B, N6A, N6B, N7A or N7B polynucleotides. The level of CD80 at the cell surface was determined after 48 hours of incubation by flow cytometry using a FITC-conjugated monoclonal antibody directed to CD80 (Serotec, Oxford, U.K.) and analyzed by CELLQuest. Results are expressed as the percentage of CD80^hi DC following treatment.

[2] = system: Human dendritic cells; assay: MHC-II levels at the DC cell surface (flow cytometry); conditions: DC from individual B; 100 μg, 48 hours
Experimental: as §1
DC from individual B were seeded in 1.0 ml at 1.0×10^5 cells/ml in 6-well flat-bottomed tissue culture plates for 48 hours with 100 μg of 6 base N1A, N1B, N2A, N2B, N3A, N3B, N5A, N5B, N6A, N6B, N7A or N7B polynucleotides. The level of MHC II at the cell surface was determined after 48 hours of incubation by flow cytometry using a FITC-conjugated monoclonal antibody directed to MHC II (Serotec) and analyzed by CELLQuest Pro. Results are expressed as the percentage of MHC II^hi DC following treatment.

[3] = system: Human dendritic cells; assay: Induction of IL-1beta production by DC (ELISA); conditions: 100 μg, 48 hours
Experimental: as §1
DC were seeded in 1.0 ml at 1.0×10^5 cells/ml in 6-well flat-bottomed tissue culture plates for 48 hours with 100 μg of 6 base N1A, N1B, N2A, N2B, N3A, N3B, N4A, N4B, N5A, N5B, N6A, N6B, N7A or N7B polynucleotides. Production of IL-1beta was determined in 100 μl of culture supernatant using a commercial ELISA (BioSource, Camarillo, Calif., USA) after 48 hours of incubation. Results are expressed as the “fold” (x) increase in IL-1beta production by treated DC compared to control cells.

[4] = system: Human dendritic cells; assay: CD86 levels at the DC cell surface (flow cytometry); conditions: 100 μg, 48 hours
Experimental: as §1
DC from individuals B and C were seeded in 1.0 ml at 1.0×10^5 cells/ml in 6-well flat-bottomed tissue culture plates for 48 hours with 100 μg of 6 base N1A, N1B, N2A, N2B, N3A, N3B, N4A, N4B, N5A, N5B, N6A, N6B, N7A or N7B polynucleotides. The level of CD86 at the cell surface was determined after 48 hours of incubation by flow cytometry using a PE-conjugated monoclonal antibody directed to CD86 (Serotec) and analyzed by CELLQuest Pro. Results are expressed as the percentage of CD86^hi DC following treatment.

[5] = system: Human dendritic cells; assay: Induction of IL-12 production by DC (ELISA); conditions: 100 μg, 48 hours
Experimental: as §1
DC were seeded in 1.0 ml at 1.0×10^5 cells/ml in 6-well flat-bottomed tissue culture plates for 48 hours with 100 μg of 6 base N1A, N1B, N2A, N2B, N3A, N3B, N4A, N4B, N5A, N5B, N6A, N6B, N7A or N7B polynucleotides. Production of IL-12 was determined in 100 μl of culture supernatant using a commercial ELISA (BioSource) after 48 hours of incubation. Results are expressed as the “fold” (x) increase in IL-12 production by treated DC compared to control cells.

[6] = system: Human dendritic cells; assay: Increase in cell size and granularity of DC (flow cytometry); conditions: 100 μg polynucleotide, 48 hours
Experimental: as §1
DC were seeded in 1.0 ml at 1.0×10^5 cells/ml in 6-well flat-bottomed tissue culture plates for 48 hours with 100 μg of 6 base N1A, N1B, N2A, N2B, N3A, N3B, N4A, N4B, N5A, N5B, N6A, N6B, N7A or N7B polynucleotides. Cell size (FCS: forward side scatter) and granularity (S SC: side light scatter) were determined by flow cytometry using a FACSCalibur and analyzed using the CELLQuest Pro software (both from Becton-Dickinson, San Diego, Calif., USA). Percentage of DC showing a FCS>500 units and a SSC>400 units have been determined after treatment with 3-OH, 5-OH polynucleotides for DC isolated from three different individuals.

[7] = system: Human dendritic cells; assay: CD40 levels at the DC cell surface (flow cytometry); conditions: 100 μg, 48 hours
Experimental: as §1
DC from individuals B and C were seeded in 1.0 ml at 1.0×10^5 cells/ml in 6-well flat-bottomed tissue culture plates for 48 hours with 100 μg of 6 base N1A, N1B, N2A, N2B, N3A, N3B, N4A, N4B, N5A, N5B, N6A, N6B, N7A or N7B polynucleotides. The level of CD40 at the cell surface was determined after 48 hours of incubation by flow cytometry (FACSCalibur system) using a FITC-conjugated monoclonal antibody directed to CD40 and analyzed by CELLQuest Pro (all from Becton Dickinson). Results are expressed as the percentage of CD40^hi DC following treatment. The term “CD40^hi” refers to a population of cells identified by flow cytometry as having higher than baseline expression of CD40.

[8] = system: Human dendritic cells; assay: Induction of IFN-gamma production by DC (ELISA); conditions: 100 μg, 48 hours
Experimental: as §1
DC were seeded in 1.0 ml at 1.0×10^5 cells/ml in 6-well flat-bottomed tissue culture plates for 48 hours with 100 μg of6 base N1A, N1B, N2A, N2B, N3A, N3B, N4A, N4B, N5A, N5B, N6A, N6B, N7A or N7B polynucleotides. Production of IFN-gamma was determined in 100 μl of culture supernatant using a commercial ELISA (BioSource) after 48 hours of incubation. Results are expressed as the “fold” (x) increase in IFN-gamma production by treated DC compared to control cells.

| Substance | The percentage of CD80^hi DC following treatment ([1]; DC from individual B) [%] | The percentage of CD80^hi DC following treatment ([1]; DC from individual C) | The percentage of MHC-II^hi DC following treatment [2] | IL-1beta production by DC (fold increase compared to untreated DC) ([3]; DC isolated from individual A) [fold] | IL-1beta production by DC (fold increase compared to untreated DC) ([3]; DC isolated from individual C) [fold] | The percentage of CD86^hi DC following treatment ([4]; DC from individual C) [%] | IL-12 production by DC (fold increase compared to untreated DC) ([5]; DC isolated from individual A) [fold] | IL-12 production by DC (fold increase compared to untreated DC) ([5]; DC isolated from individual C) [fold] | Percentage of DC showing a FCS > 500 units and a SSC > 400 units ([6]; DC isolated from individual A) [%] | Percentage of DC showing a FCS > 500 units and a SSC > 400 units ([6]; DC isolated from individual C) [%] | The percentage of CD40^hi DC following treatment ([7]; DC from individual C) [%] | IFN-gamma production by DC (fold increase compared to untreated DC) ([8]; DC isolated from individual A) [fold] | IFN-gamma production by DC (fold increase compared to untreated DC) ([8]; DC isolated from individual C) [fold] | IL-1beta production by DC (fold increase compared to untreated DC) ([3]; DC isolated from individual B) [fold] | The percentage of CD86^hi DC following treatment ([4]; DC from individual B) [%] | IL-12 production by DC (fold increase compared to untreated DC) ([5]; DC isolated from individual B) [fold] | Percentage of DC showing a FCS > 500 units and a SSC > 400 units ([6]; DC isolated from individual B) [%] | The percentage of CD40^hi DC following treatment ([7]; DC from individual B) | IFN-gamma production by DC (fold increase compared to untreated DC) ([8]; DC isolated from individual B) [fold] |
| --- | --- | --- | --- | --- | --- | --- | --- | --- | --- | --- | --- | --- | --- | --- | --- | --- | --- | --- | --- |
| 5′GGGCGG3′ [N7B] (DNA, all phosphorothioate, methylation of C not given here) | 5 | 5% | 31** % | 1.1 | 0.9 | 34 | 1.8 | 1.0 | 16 | 31 | 18 | 1.1 | 1.1 | – | – | – | – | – | – |
| 5′GGCCGG3′ [N4B] (DNA, all phosphorothioate, methylation of C not given here) | 9 | 13% | – | 1.0 | 1.0 | 32 | 1.3 | 2.6 | 4 | 32 | 16 | 1.0 | 1.0 | – | – | – | – | – | – |
| 5′ GTGTGT3′ [N1B] | 11 | 13% | 7% | 1.0 | 1.0 | 27 | 1.5 | 1.1 | 5 | 25 | 18 | 0.9 | 1.0 | 1.0 | 19 | 1.3 | 17 | 31** % | 1.0 |
| 5′GGCCGG3′ [N4A] (DNA, all phosphodiester, methylation of C not given here) | 11 | 21** % | – | 0.9 | 1.0 | 23 | 1.2 | 1.0 | 4 | 19 | 16 | 1.0 | 1.0 | – | – | – | – | – | – |
